Experimental data: ChEMBL document CHEMBL1147996, “Synthesis and biological evaluation of phosphino dipeptide isostere inhibitor of human beta-secretase (BACE1)” (Bioorg Med Chem, 2007)
*1 amine or outer side, *2 acyl side, *3 side chain or, on linkers, in order; H or OH if unused. Where a SMILES comes first, the peptide text is derived from it. [ ]: non-standard residue; d: D form. X3 = CC(C)C[C@@H](N[*:1])P(=O)(O)CC(C)C(=O)[*:2]; X1 = CC(C)C[C@H](N[*:1])P(=O)(O)CC(C)C(=O)[*:2]; X2 = CC(C)CC(N[*:1])P(=O)(O)CC(C)C(=O)[*:2]

Tests used:
Beta-secretase 1 = Beta-secretase 1 (Homo sapiens, UniProt P56817); assay: Inhibition of human BACE1 expressed in HEK293 cells; assay type: cell-based
Beta-secretase 2 = target: T1, Beta-secretase 2 (Homo sapiens, UniProt Q9Y5Z0); assay: Inhibition of BACE2 expressed in HEK293 cells; assay type: cell-based
T1 sequence (Q9Y5Z0 whole entry): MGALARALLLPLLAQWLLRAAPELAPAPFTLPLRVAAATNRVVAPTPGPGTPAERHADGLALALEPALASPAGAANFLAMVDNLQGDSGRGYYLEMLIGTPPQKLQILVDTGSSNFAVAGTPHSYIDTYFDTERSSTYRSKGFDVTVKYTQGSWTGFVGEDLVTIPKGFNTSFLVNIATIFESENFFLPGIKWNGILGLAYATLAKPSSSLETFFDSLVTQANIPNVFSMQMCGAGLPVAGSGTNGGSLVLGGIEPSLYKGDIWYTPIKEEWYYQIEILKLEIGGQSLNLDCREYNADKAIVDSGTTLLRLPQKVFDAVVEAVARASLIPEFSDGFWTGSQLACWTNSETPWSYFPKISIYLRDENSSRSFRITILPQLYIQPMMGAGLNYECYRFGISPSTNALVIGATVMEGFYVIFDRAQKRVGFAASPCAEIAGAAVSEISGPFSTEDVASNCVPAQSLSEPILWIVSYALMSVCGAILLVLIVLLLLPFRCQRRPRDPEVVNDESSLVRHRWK

Cathepsin D = Cathepsin D (Homo sapiens, UniProt P07339); assay: Inhibition of cathepsin D expressed in HEK293 cells; assay type: cell-based
[1] = Inhibition of porcine pepsin; parameters: species or system Sus scrofa

Chain of Beta-secretase 1 (P56817 whole entry): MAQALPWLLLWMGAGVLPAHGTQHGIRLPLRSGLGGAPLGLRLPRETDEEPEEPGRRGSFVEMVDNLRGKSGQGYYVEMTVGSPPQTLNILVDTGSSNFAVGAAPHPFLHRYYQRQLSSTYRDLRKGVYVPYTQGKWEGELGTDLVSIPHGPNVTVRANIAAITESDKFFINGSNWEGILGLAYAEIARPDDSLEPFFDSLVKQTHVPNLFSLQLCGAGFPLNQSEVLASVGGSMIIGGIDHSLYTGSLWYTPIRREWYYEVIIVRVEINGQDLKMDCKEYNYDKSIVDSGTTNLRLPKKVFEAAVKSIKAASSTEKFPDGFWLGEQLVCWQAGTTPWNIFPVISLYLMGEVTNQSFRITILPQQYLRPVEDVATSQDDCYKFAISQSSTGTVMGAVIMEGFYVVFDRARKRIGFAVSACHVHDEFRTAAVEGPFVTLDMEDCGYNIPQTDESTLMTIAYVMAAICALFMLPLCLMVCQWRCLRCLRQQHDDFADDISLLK
Chain of Cathepsin D (P07339 65-162 limits assumed): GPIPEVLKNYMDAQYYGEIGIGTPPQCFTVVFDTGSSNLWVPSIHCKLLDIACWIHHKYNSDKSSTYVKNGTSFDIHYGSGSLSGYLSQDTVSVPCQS
Chain of Cathepsin D (P07339 169-412 limits assumed): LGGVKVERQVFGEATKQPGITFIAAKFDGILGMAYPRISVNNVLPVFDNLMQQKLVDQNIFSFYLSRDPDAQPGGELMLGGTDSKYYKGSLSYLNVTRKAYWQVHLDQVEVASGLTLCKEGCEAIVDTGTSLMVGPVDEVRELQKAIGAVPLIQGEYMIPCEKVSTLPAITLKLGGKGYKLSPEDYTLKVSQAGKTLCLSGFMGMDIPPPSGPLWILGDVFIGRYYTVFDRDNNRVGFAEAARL

CC(C)C[C@H](NC(=O)[C@@H](N)CCC(=O)O)C(=O)N[C@@H](CC(=O)O)C(=O)N[C@@H](CC(C)C)P(=O)(O)CC(C)C(=O)N[C@H](C(=O)N[C@@H](CCC(=O)O)C(=O)N[C@@H](Cc1ccccc1)C(=O)O)C(C)C (stereo partly specified) (H-ELD[X1]VEF-OH)
IC50 (Beta-secretase 1): 12 nM | IC50 (Beta-secretase 2): 12 nM | IC50 (Cathepsin D): 28 nM | IC50 [1]: 8 nM

CC(C)CC(NC(=O)[C@H](CC(=O)O)NC(=O)[C@H](CC(C)C)NC(=O)[C@@H](N)CCC(=O)O)P(=O)(O)CC(C)C(=O)N[C@H](C(=O)N[C@@H](CCC(=O)O)C(=O)N[C@@H](Cc1ccccc1)C(=O)O)C(C)C (stereo partly specified) (H-ELD[X2]VEF-OH)
IC50 (Beta-secretase 1): 675 nM

CC(C)C[C@H](NC(=O)[C@@H](N)CCC(=O)O)C(=O)N[C@@H](CC(=O)O)C(=O)N[C@H](CC(C)C)P(=O)(O)CC(C)C(=O)N[C@H](C(=O)N[C@@H](CCC(=O)O)C(=O)N[C@@H](Cc1ccccc1)C(=O)O)C(C)C (stereo partly specified) (H-ELD[X3]VEF-OH)
IC50 (Beta-secretase 1): 2020 nM
